The values below come from the METLIN SMRT retention time set (Domingo-Almenara et al. 2019).

This data set in a line: gradient 5% acetonitrile 3 min, to 50% in 2 min, to 85% in 15 min, held 3 min, 100 µL/min. To be noted: column: Zorbax Extend-C18 2.1 x 50 mm; eluents: water / acetonitrile, 0.1% formic acid. In outline: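 Retention time was recorded from adduct peaks, which were picked computationally and each inspected manually. Pure standards ran in mixtures of ~100 molecules on HPLC coupled to a quadrupole time-of-flight mass spectrometer, in positive and negative ionization mode, through a Zorbax Extend-C18 column (2.1 × 50 mm, 1.8 μm) at 100 μL/min. Eluents were water and acetonitrile, each with 0.1% formic acid.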
As for `CCNC(=O)c1ccc(-c2nc3cc(NS(=O)(=O)c4ccc(C(C)C)cc4)ccc3n2C)cc1`, the RP-LC retention time was found to be 744 s.
`COc1ccc(N2C(=O)C3N=NN(Cc4nc(-c5ccc(C)cc5)no4)C3C2=O)cc1OC` (stereo not given): the RP-LC retention time was determined as 915 s.
Take `CCCNS(=O)(=O)c1cc2c(cc1C)CCN2C(=O)CC`: the RP-LC retention time is 818 s.
With `Cc1cc(C)cc(N2CCC(NC(=O)Nc3cccc(C)c3C)C2=O)c1` (stereo not given), the RP-LC retention time amounted to 922 s.
For the molecule `O=C(Cc1cccc(Cl)c1)N1CCc2cc(-c3ccno3)ccc21`, the RP-LC retention time came out at 1020 s.
Take `CCc1noc(NC(C)=O)c1-c1ccc(OC)c(S(=O)(=O)Nc2ccccc2F)c1`: the RP-LC retention time amounted to 763 s.
`CNC(=O)c1cc2nc(N(C)C)n(-c3ccc(OC)cc3)c2s1` gave an RP-LC retention time of 888 s.
`Cc1ccc(NC(=O)Cn2nc(N3CCOCC3)c3ccccc3c2=O)c(Cl)c1`: the RP-LC retention time was 871 s.
In turn, `CCCCn1c(=O)c2ccccc2n(Cc2nc(-c3ccc4c(c3)OCO4)no2)c1=O` displayed an RP-LC retention time of 1130 s.
Then `CCC(C)(C)NS(=O)(=O)c1cccc(-c2nc(-c3ccc(C)cc3)no2)c1`, with 1290 s; and `O=C(NCC1CCS(=O)(=O)C1)c1ccc2nsnc2c1` (stereo not given), with 609 s.
Turning to `CNC(=O)N1CCCC(c2cccc(C(=O)NC(C)c3ccc(C)cc3C)c2)C1` (stereo not given), the RP-LC retention time came out at 880 s.
`CCc1ccccc1N(C)C(=O)C1CCCN(c2ncnc3c2nc2n3CCCCC2)C1` (stereo not given) gave an RP-LC retention time of 909 s.
With `COCCCNC(=O)CN1c2ccccc2NC2=C(C(=O)CC(C)(C)C2)C1c1ccc(C)cc1` (stereo not given), the RP-LC retention time stood at 822 s.
The molecule `CC(C)Oc1ccc(CN2CC(N(Cc3ccncc3)S(C)(=O)=O)C2)cc1` registered an RP-LC retention time of 571 s.
As for `CCOC(=O)C1CCCN(C(=O)c2ccc(-c3csc(CC)n3)cc2)C1` (stereo not given), the RP-LC retention time turned out to be 925 s.
Regarding `O=C(Cc1cccc(F)c1)N1CCOc2ccccc2C1`, the RP-LC retention time was determined as 844 s.
Turning to `COC(=O)CNC(=O)NCCn1c(C(F)(F)F)nc2ccccc21`, the RP-LC retention time is 653 s.
Next, `O=C(Cc1cn2cc(F)ccc2n1)Nc1ccccc1`: 580 s; `CCCC(NC(=O)Cc1cccc(F)c1)C(=O)Nc1nc2ccccc2[nH]1` (stereo not given): 691 s; `Cc1c(F)cccc1NC(=O)N1C[C@@H](F)C[C@H]1C(=O)N1CCc2ccccc2C1`: 799 s.
Next, `CCOC(=O)c1ccc(N2CC3=C(C2=O)C(c2ccc(OC)cc2)NC(=O)N3C)cc1` (stereo not given): 878 s.
As to `Cc1cccc(-c2cc3n(n2)CCCN(C(=O)C2CCOC2)C3)c1` (stereo not given), the RP-LC retention time came out at 735 s.
For the molecule `Cc1cccc2c(C(=O)N(C)C)cc(=O)[nH]c12`, the RP-LC retention time is 597 s.
Take `O=C(NCCc1cccs1)c1c(O)c2cccnc2n(-c2cccc(F)c2)c1=O`: the RP-LC retention time turned out to be 1180 s.
In the case of `COc1ccccc1NC(=O)c1csc2c1CCCC2`, the RP-LC retention time was 1190 s.
`COCCN1CC2(CCN(S(=O)(=O)c3ccc(C)c(Cl)c3)CC2)C1c1ccccc1` (stereo not given): the RP-LC retention time worked out at 765 s.
The molecule `Cc1cc(=O)oc2c3c(cc(OCC(=O)N[C@@H](C(=O)O)C(C)C)c12)OC(C)(C)CC3` had an RP-LC retention time of 833 s.
On to `CC1=C(c2ccc(C)cc2)S(=O)(=O)N=C1N1CCCN(C(=O)c2ccoc2)CC1`, for which the RP-LC retention time was determined as 786 s.
As for `CC(C)(C)C(=O)N[C@H](Cc1ccccc1)C(=O)NCc1cscn1`, the RP-LC retention time stood at 714 s.
`O=C(NC1CCCC1)C1CCN(C(=O)c2ccc(-c3noc(C4CC4)n3)cc2)CC1` showed an RP-LC retention time of 813 s.
`COc1ccccc1-c1nnc2sc(-c3cc(CC(C)C)[nH]n3)nn12` showed an RP-LC retention time of 891 s.
The molecule `Cn1cc(C2=CCN(S(=O)(=O)c3cccc(C(F)(F)F)c3)CC2)c2cccnc21` gave an RP-LC retention time of 1050 s.
In turn, `CC(=O)Nc1ccc(C2(C(=O)NCc3ccc(F)cc3Cl)CCC2)cc1` gave an RP-LC retention time of 804 s.
As to `CC(C)Oc1ccc(CNC(=O)c2ccc3c(c2)N(C)C(=O)c2ccccc2O3)cc1`, the RP-LC retention time is 958 s.
With `CCN1C(=O)COc2cc(-c3noc(C(=O)NCC4CCCO4)n3)ccc21` (stereo not given), the RP-LC retention time stood at 783 s.
`NCCc1ccc(S(=O)(=O)F)cc1` returned an RP-LC retention time of 653 s.
In turn, `O=C(NCC1CCCO1)C1CCN(C(=O)c2ncn3c2COC(c2ccccc2)C3)CC1` (stereo not given) showed an RP-LC retention time of 649 s.
Consider `CC1(C)CC(=O)C2=C(C1)N(CC1CCCO1)C(=O)C2(NC(=O)c1ccccc1)C(F)(F)F` (stereo not given), for which the RP-LC retention time was 906 s.
`CO[C@@H]1[C@H](OC(=O)/C=C/C=C/C=C/C=C/C(=O)O)CC[C@]2(CO2)[C@H]1[C@@]1(C)O[C@@H]1CC=C(C)C` yielded an RP-LC retention time of 954 s.
On to `CCCCCNC(=O)C1CCN(S(C)(=O)=O)c2cc(Cl)ccc2O1` (stereo not given), for which the RP-LC retention time stood at 920 s.
`Cc1noc2ncn(CC(=O)Nc3ccc(F)cc3)c(=O)c12`: the RP-LC retention time came out at 735 s.
Next, `CS(=O)(=O)N1CCC(OC2CCN(C(=O)Nc3cccc(F)c3)CC2)CC1`: 720 s.
`O=C([C@@H]1OCC(=O)N(C2CC2)[C@H]1c1ccccc1)N1CCN(c2ccccc2)CC1` yielded an RP-LC retention time of 834 s.
As to `CN1C(=O)C2(CCN(C(=O)Nc3ccc4c(c3)OCCO4)C2)c2ccccc21` (stereo not given), the RP-LC retention time was 748 s.
As to `O=C(CCSc1ccccc1)N1CC(c2nc(-c3cccc(Cl)c3)no2)C1`, the RP-LC retention time came out at 1020 s.
For `Cc1c(Cl)cccc1NC(=O)N1C[C@@H](F)C[C@H]1C(=O)N1CCCCC1`, the RP-LC retention time worked out at 718 s.
With `CCc1nc(-c2csc(S(=O)(=O)N3CCCC(C(=O)Nc4ccc(F)cc4C)C3)c2)no1` (stereo not given), the RP-LC retention time turned out to be 1020 s.
Molecule `Cc1cc(=O)n(CC(=O)Nc2ccc(F)c(F)c2)c(N2CCOCC2)n1` showed an RP-LC retention time of 687 s.
Then `O=C1C(c2cccnc2)N(CCCc2ccccc2)C(=O)CN1c1ccccc1` (stereo not given), with 776 s; and `CN1C(=O)COc2ccc(-c3csc(NC(=O)C(C)(C)C)n3)cc21`, with 856 s.
Next, `O=C(NCCCn1nc(-c2ccncc2)ccc1=O)c1ccc2c(c1)OCO2`: 555 s.
In turn, `CCNC(=O)c1sc2nc(-c3ccccc3)c(NCCOC)n2c1C` yielded an RP-LC retention time of 712 s.
For `CCCN(C(=O)c1ccc2c(c1)OCO2)c1nc(-c2ccccc2)cs1`, the RP-LC retention time is 1260 s.
Consider `CC(C)n1cc(S(=O)(=O)Nc2cc(F)cc(F)c2)c2cccnc21`, for which the RP-LC retention time turned out to be 936 s.
In turn, `CCn1cnnc1C1CCCCN1S(=O)(=O)c1cccc(F)c1` (stereo not given) returned an RP-LC retention time of 716 s.
Turning to `O=C1CC(NC(=O)C2(c3ccc(Cl)cc3)CCCC2)CN1` (stereo not given), the RP-LC retention time worked out at 678 s.
Turning to `COc1ccc(NC(=O)C2CCN(S(=O)(=O)c3cn(C(C)C)cn3)CC2)cc1`, the RP-LC retention time came out at 711 s.
`O=C(Cn1c(=O)oc2ccccc21)N1CCc2nn(CC3CC3)c(=O)n2CC1`: the RP-LC retention time came out at 682 s.
`Cc1cc(C)n(-c2ccc(SCc3ccccc3Cl)nn2)n1`: the RP-LC retention time stood at 1150 s.
Consider `Cc1cccc(NC(=O)Cn2c(C)nc3onc(C)c3c2=O)c1C`, for which the RP-LC retention time worked out at 861 s.
Take `CCN1C(=O)CCc2cc(NC(=O)c3ccsc3)ccc21`: the RP-LC retention time is 715 s.
`COc1ccc(C(=O)COc2ccccc2OC)cc1` returned an RP-LC retention time of 825 s.
Then `COc1cccc(-c2noc(Cn3ccn(-c4cc(C)cc(C)c4)c(=O)c3=O)n2)c1OC`, with 870 s.
Then `O=C(Cn1nc2n(c1=O)CCCC2)Nc1ccc(F)cc1`, with 651 s; and `COc1cc(Cl)c(NC(=O)CN2C(=O)CN(C)C(=O)c3ccccc32)c(OC)c1`, with 717 s.
Molecule `COc1ccc(NC(=O)N2C[C@@H](F)C[C@H]2C(=O)N2CCc3ccccc3C2)cc1` had an RP-LC retention time of 763 s.
On to `COC(=O)c1c(C)[nH]c(C(=O)N2CCCC(C(=O)NCc3ccc(C)cc3)C2)c1C` (stereo not given), for which the RP-LC retention time is 754 s.
Next, `CCOC(=O)c1c(C)[nH]c(CCC(=O)NCCc2ccco2)c1C`: 788 s; `CC(NC(=O)COc1ccc(NC(=O)C2CC2)cn1)c1ccccc1` (stereo not given): 744 s.
The molecule `Cn1c(CNC(=O)c2cn3ccccc3n2)nc2ccccc21` registered an RP-LC retention time of 564 s.
Molecule `O=C(N[C@H]1C[C@@H]2C[C@H]1CN2C(=O)NCc1ccco1)c1ccccc1` came in with an RP-LC retention time of 652 s.
`Cc1[nH]c(C)c(S(=O)(=O)N2CCC(C(=O)Nc3ccc(Cl)cc3)CC2)c1C(=O)N1CCCC1` returned an RP-LC retention time of 788 s.
`COc1cccc(CNc2ncc(C(=O)O)c(C(C)C)n2)c1`: the RP-LC retention time was 851 s.
Next, `Cn1nc(C(=O)N2CCN(c3cc(-c4ccccc4)ncn3)CC2)ccc1=O`: 547 s; `O=S(=O)(NCc1ccccc1Cl)c1c[nH]c2ncccc12`: 742 s.
Next, `Cc1ccc(Oc2cccc(C(=O)NCCNc3cc(-n4cccn4)ncn3)c2)nn1`: 615 s.
In turn, `Cc1ccc(S(=O)(=O)N2CCC(CCNC(=O)NCCc3ccccc3)CC2)cc1` gave an RP-LC retention time of 924 s.
Molecule `Cc1cccc(NC(=O)CN2C(=O)CCc3cc(S(=O)(=O)N4CCCCC4C)ccc32)c1C` (stereo not given) had an RP-LC retention time of 930 s.
Molecule `CC(C)CCNC(=O)NCCn1c(-c2ccc(F)cc2)nc2ccccc21` had an RP-LC retention time of 650 s.
